From article PMC10035904, “Synthesis of novel sulphamethoxazole derivatives and exploration of their anticancer and antimicrobial properties” (PLOS ONE, 2023)

Assays:
[1] = system: Human foreskin fibroblasts (HF) CRL-4001; experiment: MTT cell viability assay, fibroblasts HF; assay type: cell-based; conditions: Fibroblast, 72 hours of incubation, n = 3, read-out: EC50 against HF
Method: The human clear cell renal cell carcinoma line (CaKi-1) was obtained from American Type Culture Collection (ATCC, Manassas, VA). The human prostate carcinoma cell line PPC-1 was originally obtained from ATCC and kindly provided by Prof. Tambet Teesalu (University of Tartu, Estonia). Human foreskin fibroblasts (HF) CRL-4001 were originally obtained from ATCC and kindly provided by Prof. Helder Santos (University of Helsinki, Finland). Cells were cultured in Dulbecco’s Modified Eagle’s GlutaMAX medium (Gibco (Carlsbad, CA, USA) supplemented with 10,000 U/mL penicillin, 10 mg/mL streptomycin (Gibco), and 10% fetal bovine serum (Gibco). During cell passaging, Tryple Express reagent (Gibco) was used for cell detachment. Cell cultures were grown at 37°C in a humidified atmosphere containing 5% CO2. They were used until the passage of 20.
The effect of synthesized compounds on cell viability was studied using 3-(4,5-dimethylthiazol-2-yl)-2,5-diphenyltetrazolium bromide (MTT; Sigma-Aldrich Co., St Louis, MO, USA) assay, as described elsewhere. […] The absorbance was measured at 570 and 630 nm using a multi-detection microplate reader. The compound effect on cell viability was calculated using a formula (1): Relativecellviability%=A−A0/ANC−A0 (1) Where: […]

[2] = system: HF, PPC-1, and CaKi-1 cells; experiment: MTT cell viability screen at 100 μM (cell line not given); assay type: cell-based, human; conditions: 72 h, cell line not stated
Method: The effect of synthesized compounds on cell viability was studied using 3-(4,5-dimethylthiazol-2-yl)-2,5-diphenyltetrazolium bromide (MTT; Sigma-Aldrich Co., St Louis, MO, USA) assay, as described elsewhere. Briefly, HF, PPC-1, and CaKi-1 cells were seeded in 96-well plates (Corning) in triplicates at a volume of 100 μL at a concentration of 4 × 10^3 cells/well. After 24 h of incubation, the cells were treated with 100 μM of tested compounds. After 72 h, the MTT reagent (at 0.5 mg/mL concentration) has been added to the wells, and cells were incubated for 4 h. Then the medium was aspirated, and the formed purple crystals were dissolved in 100 μL DMSO (Sigma-Aldrich Co.). The absorbance was measured at 570 and 630 nm using a multi-detection microplate reader. The compound effect on cell viability was calculated using a formula (1): Relativecellviability%=A−A0/ANC−A0 (1) Where: […]

[3] = system: Candida albicans ATCC 60193; experiment: Serial broth dilution in liquid medium, C. albicans; assay type: cell-based; conditions: ATCC60193, Mueller-Hinton broth, 48 hours, 50% reduction of microbial growth, n = 3
Method: (§1) Antibacterial and antifungal susceptibility to the compound 16b was tested using a serial broth dilution technique in Mueller-Hinton broth II (BBL, Cockeysville, USA), as described elsewhere. All procedures were done in aseptic conditions. Standard bacterial and fungal cultures were used: Staphylococcus aureus ATCC 25923, Staphylococcus epidermidis ATCC 12228, Escherichia coli ATCC 25922, Enterococcus faecalis ATCC 29212, Klebsiella pneumoniae ATCC 33499, Pseudomonas aeruginosa ATCC 27853, Proteus mirabilis ATCC 12459, Bacillus cereus ATCC 8035, and Candida albicans ATCC 60193. Standard cultures of nonsporic bacteria S. aureus, S. epidermidis, E. coli, E. faecalis, K. pneumoniae, P. aeruginosa and P. mirabilis were cultivated for 20–24 hours at 37°C in Mueller-Hinton Agar (BBL, Cockeysville, USA). A bacterial suspension was prepared from cultivated bacterial cultures in physiological solution according to turbidity standard 0.5 McFarland. Standard culture of sporic bacteria B. cereus was cultivated for 7 days at 37°C in Mueller-Hinton II Agar. […] Then the absorbance was measured at 600 nm using a multi-detection microplate reader. […]

[4] = system: Klebsiella pneumoniae ATCC 33499; experiment: Serial broth dilution in liquid medium, K. pneumoniae; assay type: cell-based; conditions: ATCC33499, Mueller-Hinton broth, 24 hours, n = 3
Method: as §1

[5] = system: Pseudomonas aeruginosa ATCC 27853; experiment: Serial broth dilution in liquid medium, P. aeruginosa; assay type: cell-based; conditions: ATCC27853, Mueller-Hinton broth, 24 hours, n = 3
Method: as §1

[6] = system: Proteus mirabilis ATCC 12459; experiment: Serial broth dilution in liquid medium, P. mirabilis; assay type: cell-based; conditions: ATCC12459, Mueller-Hinton broth, 24 hours, n = 3
Method: as §1

[7] = system: Staphylococcus aureus ATCC 25923; experiment: Serial broth dilution in liquid medium, S. aureus; assay type: cell-based; conditions: Mueller-Hinton broth, 24 hours; result in words
Method: as §1

For `Cc1cc(NS(=O)(=O)c2ccc(NCCC(=O)NN=Cc3ccc([N+](=O)[O-])o3)cc2)no1` [Compound 16b, N-(5-methylisoxazol-3-yl)-4-((3-(2-((5-nitrofuran-2-yl)methylene)hydrazineyl)-3-oxopropyl)amino)-benzenesulfonamide], the EC50 [1] was 9.5 ± 2.7 µM, the “reduced cell viability up to about” value [2] was “about 40%” and the EC50 [3] was 85.5 ± 7.1 µM. The EC50 [4] was greater than 100 µM, the EC50 [5] was greater than 100 µM and the EC50 [6] was greater than 100 µM. For the same compound, the “sensitivity of S. aureus in liquid medium” value [7] was “most sensitive”.
